System: 677734-321-R-J1-PDC complex spheroid viability
Assay: Anticancer human tumor 677734-321-R-J1-PDC patient-derived soft tissue sarcoma cell line growth inhibition [POLQ]
Settings: for IC50: curve of first compound; for viability, T/C: stronger effect = lower value
Protocol: Multicellular complex tumor spheroid response to Polymerase (POL) inhibitors (novobiocin, ART-558, RP6685) in combination with a variety of drugs and investigational agents in selected tumor cell lines
The POL inhibitors (novobiocin, ART-558, and RP6685) were evaluated both individually and in combination with standard of care and investigational anticancer small molecules within a complex spheroid model of solid tumors. . Complex spheroids include a stromal component modeled by human endothelial cells (HUVEC) and fibroblasts modeled by human mesenchymal stem cells (MSCs). The concentration ranges selected for each drug and investigational agent were based upon clinically achievable concentrations if the clinical Cmax of the agent was known.
Compounds. The drugs and investigational agents: novobiocin (NSC847541), ART-558 (NSC835418), RP-6685 (NSC848927), peposertib (NSC802822), ceralasertib (NSC780249), elimusertib (NSC800525), camonsertib (NSC841442), AZD-1390 (NSC803789), olaparib (NSC753686), talazoparib (NSC767125), rucaparib (NSC756644), sotorasib (NSC818433), MRTX-1133 (NSC836407), SN-38 (NSC673596), topotecan (NSC609699), epotoside (NSC141540), doxorubicin (NSC123127), gemcitabine (NSC613327), 5-fluorouracil (NSC19893), paclitaxel (NSC125973), vemurafenib (NSC761431), MSA-2 (NSC828583), SN-011 (NSC837082), adavosertib (NSC754352), prexasertib (NSC758257), carboplatin (NSC241240) and oxaliplatin (NSC266046), were obtained from the National Cancer Institute (NCI) Developmental Therapeutics Program Chemical Repository (21). The FDA-approved anticancer drug set is available from the Developmental Therapeutics Program at https://dtp.cancer.gov/organization/dscb/obtaining/. […] The stock solutions were prepared in dimethyl sulfoxide (DMSO, Sigma-Aldrich, St. Louis, MO, cat. D2650), except for the platinum compounds which were prepared in saline (Quality Biological, Gaithersburg, MD, cat. 114-055-101), at 800-fold the tested concentration and stored at -70 degrees C prior to their use. All drugs and investigational agents were tested over a range starting from a high concentration at or near the clinical Cmax and decreasing in half-log increments. If the clinical Cmax for an agent had not been determined, the highest concentration tested was 10 microM, except for SN-38, which was tested at a high concentration of 1 microM.
Cell Culture. All cells were maintained in an incubator at 37 degrees C and 5% CO2 with 95% humidity. The PDC lines were cultured according to standard operating procedures established by the NCI PDMR (https://pdmr.cancer.gov). Table 3 of the manuscript, lists the cell lines along with the number of the three cell types plated to form the mct-spheroids and media for tumor cell growth. After thawing, all PDC lines, except 997537-175-T-J1-PDC and 415267-285-R-J2-PDC, were cultured in Matrigel-coated flasks prepared with a working solution of 1X Ham's F-12 nutrient mix, without supplementation (Thermo Fisher Scientific, cat. 11765054), 100 U/mL penicillin-streptomycin (Thermo Fisher Scientific, cat. 15140122), and 2.5% Matrigel (Corning Inc., Corning, NY, cat. 354248) for the first three passages. The two PDC lines 997537-175-T-J1-PDC and 415267-285-R-J2-PDC were cultured on uncoated flasks. The 857933-349-R-J2-PDC line was cultured in 6C/Colon 1B media containing advanced DMEM/F-12 (Thermo Fisher Scientific, cat. 12634028), 10 mM HEPES (Thermo Fisher Scientific, cat. 15630080), 1X GlutaMAX supplement (Thermo Fisher Scientific, cat. 35050061), 0.1 mg/mL primocin (InvivoGen, San Diego, CA, cat. ant-pm-2), 10% defined fetal bovine serum, heat inactivated (HyClone Laboratories Inc., Logan, UT, cat. SH30070.03HI), 50% L-WRN conditioned media (ATCC, cat. CRL-3276), 1.25 mM N-Acetyl-L-cysteine (Sigma-Aldrich, cat. A9165), 10 mM nicotinamide (Sigma-Aldrich, cat. N0636), 1X B-27 supplement (Thermo Fisher Scientific, cat. 17504044), 1X N-2 supplement (Thermo Fisher Scientific, cat. […]

[1] = second compound 0.0316 µM, first compound 0.0316 µM
[2] = second compound 0.0316 µM, first compound 0.1 µM
[3] = second compound 0.0316 µM, first compound 0.316 µM
[4] = second compound 0.0316 µM, first compound 1 µM
[5] = second compound 0.0316 µM, first compound 3.16 µM
[6] = second compound 0.0316 µM, first compound 10 µM
[7] = second compound 0.1 µM, first compound 0.0316 µM
[8] = second compound 0.1 µM, first compound 0.1 µM
[9] = second compound 0.1 µM, first compound 0.316 µM
[10] = second compound 0.1 µM, first compound 1 µM
[11] = second compound 0.1 µM, first compound 3.16 µM
[12] = second compound 0.1 µM, first compound 10 µM
[13] = second compound 0.316 µM, first compound 0.0316 µM
[14] = second compound 0.316 µM, first compound 0.1 µM
[15] = second compound 0.316 µM, first compound 0.316 µM
[16] = second compound 0.316 µM, first compound 1 µM
[17] = second compound 0.316 µM, first compound 3.16 µM
[18] = second compound 0.316 µM, first compound 10 µM
[19] = second compound 1 µM, first compound 0.0316 µM
[20] = second compound 1 µM, first compound 0.1 µM
[21] = second compound 1 µM, first compound 0.316 µM
[22] = second compound 1 µM, first compound 1 µM
[23] = second compound 1 µM, first compound 3.16 µM
[24] = second compound 1 µM, first compound 10 µM
[25] = second compound 3.16 µM, first compound 0.0316 µM
[26] = second compound 3.16 µM, first compound 0.1 µM
[27] = second compound 3.16 µM, first compound 0.316 µM
[28] = second compound 3.16 µM, first compound 1 µM
[29] = second compound 3.16 µM, first compound 3.16 µM
[30] = second compound 3.16 µM, first compound 10 µM
[31] = second compound 10 µM, first compound 0.0316 µM
[32] = second compound 10 µM, first compound 0.1 µM
[33] = second compound 10 µM, first compound 0.316 µM
[34] = second compound 10 µM, first compound 1 µM
[35] = second compound 10 µM, first compound 3.16 µM
[36] = second compound 10 µM, first compound 10 µM
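Further: spheroids exposed to compounds for one week.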
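Wherever viability, T/C is given: 100% = vehicle DMSO treated spheroids.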

CC(C)n1c(=O)n(C)c2cnc3cc(F)c(-c4ccc(OCCCN5CCCCC5)nc4)cc3c21 + Nc1ccc(C#CCN(C(=O)Cc2ncc(C(F)(F)F)cc2C(F)(F)F)c2ccc(F)cc2)nn1
IC50 (second compound 0.0316 µM): > 10 µM | IC50 (second compound 0.1 µM): > 10 µM | IC50 (second compound 0.316 µM): > 10 µM | IC50 (second compound 1 µM): > 10 µM | IC50 (second compound 3.16 µM): > 10 µM | IC50 (second compound 10 µM): > 10 µM | viability, T/C [1]: 94% | viability, T/C [2]: 106% | viability, T/C [3]: 103% | viability, T/C [4]: 97.1% | viability, T/C [5]: 87.7% | viability, T/C [6]: 101% | viability, T/C [7]: 99% | viability, T/C [8]: 102% | viability, T/C [9]: 92.2% | viability, T/C [10]: 81.5% | viability, T/C [11]: 72.6% | viability, T/C [12]: 88.8% | viability, T/C [13]: 90.2% | viability, T/C [14]: 92.7% | viability, T/C [15]: 98% | viability, T/C [16]: 112% | viability, T/C [17]: 84.9% | viability, T/C [18]: 94.2% | viability, T/C [19]: 109% | viability, T/C [20]: 85.9% | viability, T/C [21]: 93.6% | viability, T/C [22]: 80.5% | viability, T/C [23]: 84.9% | viability, T/C [24]: 96.3% | viability, T/C [25]: 112% | viability, T/C [26]: 102% | viability, T/C [27]: 95% | viability, T/C [28]: 105% | viability, T/C [29]: 83.3% | viability, T/C [30]: 103% | viability, T/C [31]: 85.3% | viability, T/C [32]: 96.3% | viability, T/C [33]: 93.3% | viability, T/C [34]: 79.5% | viability, T/C [35]: 93% | viability, T/C [36]: 89.2%

CCCS(=O)(=O)Nc1ccc(F)c(C(=O)c2c[nH]c3ncc(-c4ccc(Cl)cc4)cc23)c1F + Nc1ccc(C#CCN(C(=O)Cc2ncc(C(F)(F)F)cc2C(F)(F)F)c2ccc(F)cc2)nn1
IC50 (second compound 0.0316 µM): 5.07 µM | IC50 (second compound 0.1 µM): 5.35 µM | IC50 (second compound 0.316 µM): 5.46 µM | IC50 (second compound 1 µM): 4.5 µM | IC50 (second compound 3.16 µM): 4.29 µM | IC50 (second compound 10 µM): 4.7 µM | viability, T/C [1]: 96.6% | viability, T/C [2]: 106% | viability, T/C [3]: 97.2% | viability, T/C [4]: 104% | viability, T/C [5]: 80% | viability, T/C [6]: 7% | viability, T/C [7]: 107% | viability, T/C [8]: 109% | viability, T/C [9]: 87.5% | viability, T/C [10]: 98.9% | viability, T/C [11]: 86.8% | viability, T/C [12]: 6.32% | viability, T/C [13]: 99% | viability, T/C [14]: 101% | viability, T/C [15]: 102% | viability, T/C [16]: 108% | viability, T/C [17]: 87.9% | viability, T/C [18]: 7.94% | viability, T/C [19]: 107% | viability, T/C [20]: 103% | viability, T/C [21]: 107% | viability, T/C [22]: 98.6% | viability, T/C [23]: 68% | viability, T/C [24]: 9.46% | viability, T/C [25]: 121% | viability, T/C [26]: 110% | viability, T/C [27]: 102% | viability, T/C [28]: 96.6% | viability, T/C [29]: 67.2% | viability, T/C [30]: 5.17% | viability, T/C [31]: 96.8% | viability, T/C [32]: 105% | viability, T/C [33]: 96.1% | viability, T/C [34]: 113% | viability, T/C [35]: 73.2% | viability, T/C [36]: 5.45%

— PubChem BioAssay AID1963842 (Molecular Pharmacology Branch, DTP, NCI, 2024)
